Data reported in US11090308B2, “Methods of treating liver disorders or lipid disorders with a THR-beta agonist” (Madrigal Pharmaceuticals, Inc., priority 2016, dated 2021).

Assays:
[1] = test system: sandwich-cultured human hepatocytes (SCHH); assay: Effects of temperature and concentration on total accumulation in SCHH; type: in vitro ADME
Experimental: (§1) MGL-3196 and its metabolite, MGL-3196-M1 (M1), were evaluated in sandwich-cultured human hepatocytes (SCHH) to evaluate the effects of temperature and concentration on total accumulation. Incubations were performed in presence of 4% bovine serum albumin (BSA) for 20 minutes at 37° C. and 4° C. across multiple concentrations (3, 10, 30, and 100 μM). Following the hepatic accumulation study, a species comparison of the hepatobiliary disposition of MGL-3196 (30 μM) and its metabolite, M1, was evaluated in SCHH and sandwich-cultured dog hepatocytes (SCDH) in the presence of 4% BSA.

CYP1A2 = biological target: T1, CYP1A2 (Homo sapiens, UniProt P05177); assay: In vitro Cytochrome P-450 enzyme assay, CYP1A2; type: in vitro ADME
T1 sequence (P05177 1-516): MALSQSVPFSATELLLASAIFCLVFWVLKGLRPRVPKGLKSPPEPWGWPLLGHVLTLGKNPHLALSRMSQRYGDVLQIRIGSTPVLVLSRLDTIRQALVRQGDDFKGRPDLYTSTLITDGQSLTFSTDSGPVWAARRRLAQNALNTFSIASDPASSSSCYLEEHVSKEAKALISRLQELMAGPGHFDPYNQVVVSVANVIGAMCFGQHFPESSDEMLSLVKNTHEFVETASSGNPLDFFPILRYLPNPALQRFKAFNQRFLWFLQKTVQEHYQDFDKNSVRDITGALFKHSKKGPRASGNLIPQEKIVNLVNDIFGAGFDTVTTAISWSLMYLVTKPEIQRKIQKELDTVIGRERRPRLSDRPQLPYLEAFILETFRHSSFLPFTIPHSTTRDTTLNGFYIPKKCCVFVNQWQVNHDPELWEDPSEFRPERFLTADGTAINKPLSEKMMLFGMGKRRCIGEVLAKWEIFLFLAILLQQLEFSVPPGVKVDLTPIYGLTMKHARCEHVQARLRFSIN
Source text: (§2) The following studies have been conducted: (a) in vitro drug protein binding, transporter (organic anion transporting polypeptide [OATP], P-glycoprotein [P-gp], breast cancer-related protein [BCRP], and multiple drug resistance protein 1 [MDR1]), and cytochrome P-450 enzyme assays to investigate absorption, distribution, and excretion; (b) in vivo MGL-3196 rat and dog oral PK and bioavailability studies; (c) in vivo ^14C-MGL-3196 rat and dog oral pharmacokinetics, absorption, excretion, and tissue distribution by quantitative whole-body autoradiography (QWBA) studies; and (d) liver disposition of MGL-3196 using an in vitro sandwiched hepatocyte model system (B-CLEAR® technology) in dog (SCDH) and human (SCHH) hepatocytes.

[2] = test system: sandwich-cultured human hepatocytes (SCHH); assay: Hepatobiliary disposition in sandwich-cultured human hepatocytes (SCHH); type: in vitro ADME
Experimental: Qualyst Transporter Solutions evaluated the hepatic uptake of MGL-3196 in sandwich cultured human hypetocytes (SCHH). MGL-3196 was evaluated at 30 μM after a 20-minute incubation (based on a pilot uptake study) in the presence of a physiologic concentration of bovine serum albumin (BSA, ˜4%). The experiment was performed in a 24-well format using 1 lot of Transporter Certified™ human hepatocytes (N=1). Each test condition was performed in 3 wells to provide triplicate data. Sample preparation and LC/MS/MS analysis of cell lysate to determine concentrations of MGL-3196 was performed at QTS according to analytical assay methodology and analytical standards supplied by Madrigal Pharmaceuticals. The following parameter for test article were determined: (a) total accumulation (hepatic uptake), (b) cellular accumulation (intracellular concentration), (c) biliary excretion index (hepatic efflux), (d) Kp value (hepatic accumulation), (e) in vitro biliary clearance (predictive of in vivo biliary clearance), and (f) media accumulation (post incubation supernatant).
Parameters determined: • Bile Accumulation=Total Accumulationplus(+)Buffer−Cellular AccumulationMinus(−)Buffer
[formula] • AUC=(Incubation Time)*(Analyte ConcentrationMedia) • In vitro biliary clearance:
[formula] • (Kp ratio reflects the extent of MGL-3196 accumulation in hepatocyte to the total MGL-3196 concentration in the buffer, outside of the hepatocyte).
as §1

OATP1B1 = biological target: T2, OATP1B1 (Homo sapiens, UniProt Q9Y6L6); assay: In vitro drug transporter assay, OATP1B1; type: in vitro ADME
T2 sequence (Q9Y6L6 1-691): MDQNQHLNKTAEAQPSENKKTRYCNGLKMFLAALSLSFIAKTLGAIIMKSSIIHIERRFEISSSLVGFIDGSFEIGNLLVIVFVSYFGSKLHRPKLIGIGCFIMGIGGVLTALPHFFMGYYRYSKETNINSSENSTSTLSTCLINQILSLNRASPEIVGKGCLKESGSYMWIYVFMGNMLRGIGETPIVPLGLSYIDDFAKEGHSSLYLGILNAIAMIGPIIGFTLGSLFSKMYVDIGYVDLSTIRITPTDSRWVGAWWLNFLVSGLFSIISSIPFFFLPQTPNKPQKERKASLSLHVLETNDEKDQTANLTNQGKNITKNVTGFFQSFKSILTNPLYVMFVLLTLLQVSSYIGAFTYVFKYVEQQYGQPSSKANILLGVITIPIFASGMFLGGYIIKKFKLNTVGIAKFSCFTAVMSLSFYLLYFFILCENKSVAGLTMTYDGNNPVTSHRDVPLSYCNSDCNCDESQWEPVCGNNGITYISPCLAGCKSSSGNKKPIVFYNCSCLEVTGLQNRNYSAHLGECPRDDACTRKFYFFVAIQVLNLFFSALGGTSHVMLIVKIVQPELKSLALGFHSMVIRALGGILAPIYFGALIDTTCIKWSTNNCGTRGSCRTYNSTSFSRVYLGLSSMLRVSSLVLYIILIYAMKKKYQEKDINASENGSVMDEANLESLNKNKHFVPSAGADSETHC
Source text: as §2

in vitro = in vitro ADME, all species; conditions: plasma
Source text: as §2

CYP2C19 = CYP2C19 (Homo sapiens, UniProt P33261); assay: In vitro Cytochrome P-450 enzyme assay, CYP2C19; type: in vitro ADME
CYP2C19, sequence (P33261 whole entry): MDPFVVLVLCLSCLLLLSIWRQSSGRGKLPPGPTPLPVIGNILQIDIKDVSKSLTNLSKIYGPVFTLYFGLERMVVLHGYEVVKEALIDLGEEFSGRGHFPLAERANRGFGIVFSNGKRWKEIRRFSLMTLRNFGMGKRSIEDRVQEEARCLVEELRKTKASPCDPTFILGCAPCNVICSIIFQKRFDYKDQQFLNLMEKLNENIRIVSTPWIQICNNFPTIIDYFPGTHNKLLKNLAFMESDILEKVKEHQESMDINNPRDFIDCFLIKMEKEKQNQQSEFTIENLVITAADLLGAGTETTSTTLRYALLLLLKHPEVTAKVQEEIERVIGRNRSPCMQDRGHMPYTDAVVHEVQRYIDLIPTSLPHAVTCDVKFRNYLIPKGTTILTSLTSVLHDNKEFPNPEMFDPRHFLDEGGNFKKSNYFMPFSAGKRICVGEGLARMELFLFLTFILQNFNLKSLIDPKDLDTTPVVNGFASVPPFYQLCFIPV

[3] = 20 min exposure to MGL-3196 30 μM, 4% BSA

Q: With `CC(C)c1cc(Oc2c(Cl)cc(-n3nc(C#N)c(=O)[nH]c3=O)cc2Cl)n[nH]c1=O` [MGL-3196, 2-(3,5-dichloro-4-((5-isopropyl-6-oxo-1,6-dihydropyridazin-3-yl)oxy)phenyl)-3,5-dioxo-2,3,4,5-tetrahydro-1,2,4-triazine-6-carbonitrile] as the compound, how does the “share of total accumulation (hepatocytes+bile) mediated by an active uptake process (temperature-dependent)” value ([1]; 37° C. vs 4° C., 20 minutes, 4% BSA, 3, 10, 30, 100 μM) read?
A: ≥ 72.8%

Q: And the “Inhibitor of: CYP1A2” value (CYP1A2)?
A: not an inhibitor

Q: And the “BEI (Biliary Excretion Index)” value [2, 3]?
A: 33.7%

Q: And the “Bile Acc.” value [2, 3]?
A: 293 pmol/mg

Q: And the “Cellular Acc.” value [2, 3]?
A: 570 pmol/mg

Q: What about the “ClBiliary (in vitro biliary clearance)” value [2, 3] of the same compound?
A: 1.45 mL/min/kg

Q: And the “ICC (intracellular concentration)” value [2, 3]?
A: 74.2 µM

Q: And the Kp [2, 3]?
A: 2.47 Ratio

Q: And the “Total Acc.” value [2, 3]?
A: 863 pmol/mg

Q: And the “Substrate for: OATP1B1” value (OATP1B1)?
A: OATP1B1;

Q: What about the “Inhibitor of: OATP1B1, % inhibition” value (OATP1B1; @ 10 uM Pravastatin) of the same compound?
A: 29%

Q: And the IC50 (OATP1B1; read-out: Inhibitor of: OATP1B1, IC50)?
A: 3.7 µM

Q: What about the fraction unbound (in vitro) of the same compound?
A: < 0.01

Q: And the “Inhibitor of: CYP2C19” value (CYP2C19)?
A: not an inhibitor

Q: Which results are given for `CC(CO)c1cc(Oc2c(Cl)cc(-n3nc(C#N)c(=O)[nH]c3=O)cc2Cl)n[nH]c1=O` (centres unmarked) [MGL-3623]?
A: reduction of accumulation in 4° C. incubations ([1]; across all MGL-3196 exposure levels examined): ≥ 65%; IC50 (CYP1A2; read-out: Inhibitor of: CYP1A2, IC50): > 50 µM; BEI (Biliary Excretion Index) [2, 3]: 30.4%; Bile Acc. [2, 3]: 1.78 pmol/mg; Cellular Acc. [2, 3]: 4.01 pmol/mg; ICC (intracellular concentration) [2, 3]: 0.521 µM; PIS (post incubation supernatant, cell culture media) [2, 3]: BLQ; Total Acc. [2, 3]: 5.79 pmol/mg; accumulation as % of parent's total accumulation ([2]; MGL-3196 30 μM, 20 minutes): 0.67%; Substrate for: OATP1B1 (OATP1B1): OATP1B1; inhibition at 10 µM (OATP1B1; @10 uM, insignificant, read-out: Inhibitor of: OATP1B1, % inhib): 23%; IC50 (CYP2C19; range given jointly for CYP2B6, CYP2C9, CYP2C19, weak, read-out: Inhibitor of: CYP2C19, IC50): 24 to 35 µM
